Measurements as given in patent publication US9415034B2, “Inhibitors and enhancers of uridine diphosphate-glucuronosyltransferase 2B (UGT2B)” (NATIONAL DEFENSE MEDICAL CENTER, priority 2005, dated 2016).
Where “and” joins values, the source holds several entries; their conditions need not be identical. Equal values may be shown once. Read-outs that look alike come from different tables or passages of the source.

What was measured:
[1] = SD rat
[2] = SD rat, intravenous nalbuphine, with or without capillarisin, Mean ± SE, n = 6
[3] = in vivo; conditions: male, Sprague-Dawley, rat, serum, po
[4] = in vivo; conditions: male, Sprague-Dawley, rat, serum, iv, 1 mg/Kg
[5] = in vivo; cited from earlier work
[6] = system: UGT2B; assay: Measurement of the inhibition of UGT2B activity in vitro (metabolism of nalbuphine in liver microsome, HPLC); conditions: for inhibition at 60 min, 8.5 µM / inhibition at 60 min, 8.5 μM / inhibition at 60 min, 85 µM / inhibition at 60 min, 85 μM / inhibition at 60 min, 850 µM / inhibition at 60 min, 850 μM / inhibition at 60 min: male, Sprague-Dawley, rat; for inhibition at 60 min, 8.5 µM / inhibition at 60 min, 8.5 μM / inhibition at 60 min, 85 µM / inhibition at 60 min, 85 μM / inhibition at 60 min, 850 µM / inhibition at 60 min, 850 μM: % Inhibition (Mean ± SD); for inhibition at 60 min: inhibition rate on the metabolism of nalbuphine in microsome
Experimental: In the following experiment, 27 different kinds of CHEs and 10 different excipients were used as UGT2B inhibitor in this invention. These CHEs are pure compounds available commercially, and were purchased from Sigma Chemical Co., Nacalai Tesque (Kyoto, Japan) and Indofine Chemical Co., Inc. (Somerville, N.J.). These UGT2B inhibitors are dissolved in alcohol at the concentration of 1, 10, 100 μM for the following experiment.
These excipients are dissolved in water and make up to 0.5%, 5%, 50% (wt %, w/v) for the following experiment. (Note: BRIJ is a registered trademark of ICI Americas, Inc.; Pluronic is a registered trademark of BASF Corporation.)
The Sprague-Dawley male rats, weighted 300-400 g are used as model animals in these experiments. The microsome is prepared as follows: • i. Sacrifice a rat after 12-16 hours fasting, take its liver; wipe dry the liver and weigh it. • ii. Add 300% (by volume) of cold 0.3M sucrose solution, and homogenize the liver. • iii. Centrifuge the homogenized liver suspension at 9000×g speed (KS-800, Kubota, made in Japan) for 10 min at 4° C. Collect the supernatant. • iv. Centrifuge the supernatant at 105,000×g speed (L8-60M, Beckman, made in USA) for 60 min at 4° C. • v. Remove the supernatant, add 0.3M sucrose (of the same volume) and repeat the homogenization. The homogenized liver suspension is the microsome. Store the microsome at −70° C.
Thaw the microsome before use. Add 5 μl/ml BRIJ®35 (Fisher et al. 2000, Drug Metabolism & Disposition. 28(5):560-6) into microsome by a ratio of microsome:BRIJ®35=8:1 (v/v).
The protein amount is determined as follows: • i. Take 0.1 ml microsome and dilute to 5 ml 0.85% NaCl (50-fold dilution, v/v). Take 0.2 ml of the diluted microsome and place it in a capped test tube (triple experiments). Separately, replacing microsome with 0.2 ml NaCl as the control. • ii. Add 2.2 ml Biuret regent (SIGMA, 690-A) into each test tube, mix well and store at room temperature for 10 min. • iii. Add 0.1 ml folin regent (SIGMA, 690-A), mix immediately, and store at room temperature for 30 min. Measure the absorbance at 550 nm wave length within the 30 min. Measure the concentration of protein in microsome based on the standard curve generated by various bovine albumin concentration and absorbance. 4. The Measurement of the Inhibition of UGT2B Activity in vitro • i. […] Mix solution (A) and 17 μl solution (B) thoroughly, place in a 37° C. water bath and shake at 125 rpm for 60 min. • iii. Add 1 ml ACN to interrupt the reaction. • iv. Centrifuge at 130,000×g speed at 4° C. for 5 min, and • v. […] 5.
Set the Ultra-violet detector's (SPD-10A, Shimadzu, Kyoto, made in Japan) wave length to 210 nm.
Those CHEs are commercially available pure compounds, acquired from Sigma Chemical Co., Nacalai Tesque (Kyoto, Japan) and […] (Somerville, N.J.). Their categories, names, sources, and chemical compositions are described in Table 5.

[7] = oral nalbuphine 100 mg/Kg, with or without capillarisin 4 mg/Kg, Mean ± SE, n = 6

Row | SMILES | inhibition at 60 min, 8.5 µM [6] [%] | inhibition at 60 min, 8.5 μM [6] [%] | inhibition at 60 min, 85 µM [6] [%] | inhibition at 60 min, 85 μM [6] [%] | inhibition at 60 min, 850 µM [6] [%] | inhibition at 60 min, 850 μM [6] [%] | inhibition at 60 min [6] [%] | also measured
1 | Oc1ccc2c3c1O[C@H]1[C@@H](O)CC[C@@]4(O)[C@@H](C2)N(CC2CCC2)CC[C@]314 [Nalbuphine, nalbuphine] | – | – | – | – | – | – | – | AUC(total) [1, 7]: 24356 ± 8865 ng·min/mL; k [1, 7]: 0.0027 ± 0.0007 min⁻¹; absolute bio-availability of orally administered nalbuphine ([1]; oral nalbuphine with or without capillarisin): 5% and 12.759±4.64%; AUC(total) [2]: 1909 ± 330 ng·min/mL; CL/F [2]: 50.6 ± 14.1 L/h/kg; k [2]: 0.016 ± 0.004 min⁻¹; AUC(total) ([2]; listed as nalbuphine): 7135 ± 1218 ng·min/mL; Cmax ([3]; 100 mg/Kg): 0.0793 ± 0.018 µg/mL; Tmax ([3]; 100 mg/Kg): 1.62 h; AUC(0-t) ([3]; 100 mg/kg): 0.357 µg·h/mL; CL/F ([3]; 100 mg/kg): 350 ± 62.9 L/h/kg; Cmax ([3]; 100 mg/kg): 0.079 ± 0.018 µg/mL; MRT ([3]; 100 mg/kg): 8.27 h; half-life ([3]; 100 mg/kg): 5.53 ± 1.03 h; AUC(0-t) [4]: 0.0288 µg·h/mL; Cmax [4]: 0.154 ± 0.03 µg/mL; MRT [4]: 0.983 h; half-life [4]: 1.28 ± 0.483 h; half life through the excretion of liver [5]: 5 h
2 | C[C@@H]1O[C@@H](OC[C@H]2O[C@@H](Oc3c(-c4ccc(O)c(O)c4)oc4cc(O)cc(O)c4c3=O)[C@H](O)[C@@H](O)[C@@H]2O)[C@H](O)[C@H](O)[C@H]1O [rutin, Rutin] | – | – | – | – | – | – | – | % Inhibition (Mean ± SD) ([6]; Table 6, enhancer 8.5 μM, negative = enhancement): −19.854 ± 19.742%; % Inhibition (Mean ± SD) ([6]; Table 6, enhancer 85 μM, negative = enhancement): −29.414 ± 29.485%; % Inhibition (Mean ± SD) ([6]; Table 6, enhancer 850 μM, negative = enhancement): −33.458 ± 13.373%
3 | C=C[C@H]1[C@H](O[C@@H]2O[C@H](CO)[C@@H](O)[C@H](O)[C@H]2O)OC=C2C(=O)OCC[C@]21O [swertiamarin, Swertiamarin] | – | – | – | – | – | – | – | % Inhibition (Mean ± SD) ([6]; Table 2, inhibitor 8.5 μM, metabolism of nalbuphine in rat liver microsome): 28.239 ± 2.248%; % Inhibition (Mean ± SD) ([6]; Table 2, inhibitor 85 μM, metabolism of nalbuphine in rat liver microsome): 27.930 ± 4.129%; % Inhibition (Mean ± SD) ([6]; Table 2, inhibitor 850 μM, metabolism of nalbuphine in rat liver microsome): −2.499 ± 6.899%
4 | O=C/C=C/c1ccccc1 [trans-cinnamaldehyde, Trans- Cinnamaldehyde] | -6.97 ± 3.78 | -6.97 ± 3.78 | -3.1 ± 9.46 | -3.1 ± 9.46 | 18.3 ± 10.3 | 18.3 ± 10.3 | – | –
5 | O=C(O)/C=C/c1ccccc1 [trans-cinnamic acid, Trans-Cinnamic Acid] | – | -153 ± 24.9 | – | -109 ± 18.6 | – | -135 ± 3.9 | – | –
6 | O=c1ccc2ccc(O)cc2o1 [umbelliferone, Umbelliferone] | -14.7 ± 5.81 | -14.7 ± 5.81 | 4.6 ± 8.24 | 4.6 ± 8.24 | -20.6 ± 18.2 | -20.6 ± 18.2 | – | –
7 | COc1c(O)cc(O)c2c(=O)cc(-c3ccccc3)oc12 [wogonin, Wogonin] | – | -129 ± 8.29 | – | -153 ± 6.49 | – | -136 ± 2.88 | – | –
8 | O=c1cc(-c2ccccc2)oc2c1ccc1ccccc12 [α-naphthoflavone, α- Naphthoflavone] | 72.3 ± 2.81 | – | 97.8 ± 4.37 | – | 90.8 ± 7.17 | – | ≥ 30 | –
9 | C=CC(=C)CCC=C(C)C [β-myrcene, β-Myrcene] | 16.8 ± 1.72 | – | 35.29 ± 0.22 | – | 34.9 ± 7.3 | – | ≥ 30 | –
10 | O=c1cc(-c2ccccc2)oc2ccc3ccccc3c12 [β-naphthoflavone, β- Naphthoflavone] | 95.8 ± 5.46 | – | 86 ± 16.5 | – | 99.7 ± 15.9 | – | ≥ 30 | –
